Laboratory results as given in patent US6855505B2, “Method for quantifying TGF-β” (Renovo Limited, priority 1998, dated 2005).

Key:
active TGF-β = test: Active TGF-β in wound cryosections, modified PAI/L assay; format: in vivo, rat; settings: for level of active TGF-β in treated wounds compared with PBS controls: M6P 100 mM, 100 μl/wound/day; for level of active TGF-β in treated wounds compared to controls: 100 μM kistrin
Excerpt: (§1) Adult male Sprague-Dawley rats (Charles River UK Ltd, Kent, UK) weighing 225-250 g were anaesthetised by inhalation of halothane, nitrous oxide, and oxygen. The back of the rats was shaved, and four full-thickness linear incisions of 1 cm length, including the panniculus carnosus, were made on the back of the animals using a scalpel as described in Shah et al., “Control of scarring in adult wounds by neutralising antibody to transforming growth factor β, Lancet. 339: 213-214, 1992. The wounds were left unsutured to heal by secondary intention. The animals were allowed to recover, housed separately, and fed ad libitum until the wounds were harvested. The animals were killed by chloroform overdose at 1 hour, 6 hour, or 1, 2, 3, 4, 5, 7, 10 and 14 days post-wounding. The wounds were harvested and processed as described below. All animal experiments were carried out under appropriate licences according to UK Home Office regulations.
(§2) The wound area was swabbed with 70% ethanol. The wounds were carefully dissected from surrounding tissue and subsequently embedded in 8% sterile methyl cellulose (Sigma, Dorset, UK) and snap frozen in liquid nitrogen. Four wounds from each animal were embedded in one block of methyl cellulose. Four tissue samples of equivalent size representing surrounding tissue adjacent to the wound were also excised and processed as described above. Normal skin from the back of non-wounded rats was used as a control. The embedded tissue samples were stored at −80° C. for a maximum of 3 months. Thick cryosections (20 μm) were cut and placed on sterilised 13-mm round coverslips and analysed in duplicate. The coverslips, each carrying 4 cryosections of the wound, were placed into a 24-well cell culture plate and temporarily stored at −20° C. until transferred onto mink lung epithelial cells (MLECs).
Referring to FIG. 1, the original PAI/L assay for the quantification of TGF-β in liquid samples was modified in order to measure active/latent TGF-β levels in a tissue section of a wound site to provide an indication of the levels at the wound site in vivo. As shown in FIG. 1A MLECs (10) were plated for 4 h into 24-well plates. one well (12) being represented in FIG. 1A (3×10^5/ml, 500 μl/well) in complete DMEM and incubated for 4 hours at 37° C. Then, serum-containing medium was replaced with 500 μl of DMEM containing 0.1% pyrogen-poor BSA (from Pierce, Rockford, Ill., USA), aprotinin (1 μg/ml) (from Sigma, Dorset, UK) penicillin (100 U/ml) and streptomyciln (100 μg/ml), designated DMEM-BSA medium (14). The coverslips (16) carrying cryosections (18) were placed upside down onto the MLECs (10) in the 24-well plates.
These serial dilutions were added to the MLECs (10) together with methyl-cellulose coated coverslips (16).
Both samples and TGF-β standards were incubated with the MLECs (10) overnight at 37° C. MLECs (10) were then washed with phosphate buffered saline (PBS) and lysed with 200 μl of luciferase cell lysis buffer (from Analytical Luminescence Laboratory, Ann Arbor, USA) for 20 minutes at room temperature. Forty-five microliters of the lysates was transferred in triplicate to a Microlite 96-well plate (Dynatech Laboratories Inc. Chantilly, Va., USA). Luciferase activity in the lysates was determined using an MLX Microtiter Plate Luminometer (Dynex Technologies, Chantilly, Va., USA).
(§3) 20 animals each received 4 wounds which were subsequently treated with M6P (100 mM, 100 μl/wound/day). Animals were killed at 1 and 6 hours and 1, 3, 5, 7, 10 and 14 days post wounding. The wounds were dissected and embedded in methyl cellulose, then snap frozen. The tissue samples were subsequently prepared for use in the modified PAI-1/L assay.
Briefly, rat incisional wounds were treated with 1 mM monodansylcadaverine (MDC), a potent inhibitor of Transglutaminase activity. The wounds were prepared and assayed as described previously. […]

total TGF-β = test: Total TGF-β (active plus latent) in heat-activated wound cryosections, PAI/L assay; format: in vivo, rat; settings: for level of total TGF-β in treated wounds compared with control wounds: M6P 100 mM, 100 μl/wound/day; for level of total TGF-β in treated wounds compared to controls: 100 μM kistrin
Excerpt: as §1, §2
In order to measure total TGF-β (active plus latent) in the wound tissue samples, the coverslips carrying the cryosections were submerged in 500 μl of DMEM-BSA medium in a sterile glass embryo dish (BDH, Merck, Leics., UK) and incubated for 20 minutes at 80° C. in order to heat activate latent TGF-β. Following heat activation, the coverslips were transferred, together with the medium, onto MLECs for TGF-β quantification in the PAI/L assay according to Example 1. Similar results were obtained in three separate experiments.
as §3
(§4) Briefly, rat incisional wounds were treated with 100 μM kistrin, then prepared and assayed as described previously.

rat incisional wounds [1] = test: Scarring in rat incisional wound model; format: in vivo
Excerpt: as §1
Briefly, rat incisional wounds were treated with 1 mM monodansylcadaverine (MDC), a potent inhibitor of Transglutaminase activity. The wounds were prepared and assayed as described previously.
as §4

rat incisional wounds [2] = settings: application into rat dermal wounds; earlier studies; cited from earlier work
latent TGF-β = test: Latent TGF-β in wound sections; format: in vivo, rat; settings: 100 μM kistrin; 1 hour post wounding
Procedure: as §4

[3] = rat incisional wounds treated with 1 mM MDC

With O=C[C@@H](O)[C@@H](O)[C@H](O)[C@H](O)COP(=O)(O)O [M6P, mannose-6-phosphate] as the compound, how does the “level of active TGF-β in treated wounds compared with PBS controls” value (“level … compared with PBS controls” for short) (active TGF-β; 1 hour post wounding) read?
The value was “less”.

What about the “level … compared with PBS controls” value (active TGF-β; 6 hours post wounding) of the same compound?
The value was “less”.

And the “level … compared with PBS controls” value (active TGF-β; 10 days post wounding)?
Its value is “more active TGF-β than controls”.

What about the “level … compared with PBS controls” value (active TGF-β; after 6 hours until 10 days post wounding) of the same compound?
Its value is “comparable”.

And the “reduction of levels of active TGF-β in vivo (overall conclusion)” value (active TGF-β; M6P treated rat wounds, early stages of wound repair)?
Its value is “effective in reducing the levels of active TGF-β in vivo”.

And the “level of total TGF-β in treated wounds compared with control wounds” value (from here on “level … compared with control wounds”) (total TGF-β; 6 hours post wounding)?
Its value is “higher than controls”.

And the “level … compared with control wounds” value (total TGF-β; 5 days post wounding)?
Its value is “higher than controls”.

And the “level … compared with control wounds” value (total TGF-β; 7 days post wounding)?
Its value is “less than controls”.

And the “level … compared with control wounds” value (total TGF-β; 10 days post wounding)?
The value was “higher than controls”.

What about the scarring (rat incisional wounds [1]; local administration of M6P, rat incisional wound model, previously demonstrated by the applicant) of the same compound?
The scarring was “significantly reduces scarring”.

And the quality of scarring (rat incisional wounds [2])?
Its quality of scarring is “improve the quality of scarring”.

With CN(C)c1cccc2c(S(=O)(=O)NCCCCCN)cccc12 [MDC, monodansylcadaverine] as the compound, how does the “early TGF-β levels” value (active TGF-β; [3]) read?
Its value is “reduces early TGF-β levels”.

And the “TGF-β activation in vivo” value (active TGF-β; rat incisional wounds treated with 1 mM MDC, FIG. 8)?
Its value is “inhibits TGF-β activation in vivo”.

What about the scarring (rat incisional wounds [1]; [3]) of the same compound?
Its scarring is “improves scarring”.

What does the source list for kistrin?
level of active TGF-β in treated wounds compared to controls (active TGF-β; 1 hour post wounding): increased; level of active TGF-β in treated wounds compared to controls (active TGF-β; 5 days post wounding): no differences; level of total TGF-β in treated wounds compared to controls (total TGF-β; 1 hour post wounding): increased; level of total TGF-β in treated wounds compared to controls (total TGF-β; 5 days post wounding): no differences; amount of latent TGF-β compared to controls (latent TGF-β): no difference; antiscarring effect (rat incisional wounds [1]; kistrin treated rat incisional wounds): no antiscarring effect
